The results in this text go back to US5618829A, “Tyrosine kinase inhibitors and benzoylacrylamide derivatives” (Mitsubishi Chemical Corporation, priority 1993, dated 1997).

Where two headings read alike, the source gives them in different places.

For one test, the system named is KB cell. In words: Cancer cell growth inhibitory activity (KB cells, MTT). As to conditions: Homo sapiens, 72 h, read-out: Inhibitory activity (IC50, μM) Cancer cell growth. The class given is cell-based. The method, then: (§1) The compounds of the invention were evaluated their tyrosine kinase inhibitory activities with partially purified EGF (epidermal cell growth factor) receptor preparation and cell growth inhibitory activity with human cancer cells.
Cancer Cell Growth Inhibitory Activity
Accordingly, the KB cell was used to evaluate the effect of test compounds on the growth of cultured cancer cells.
KB cells were plated on a 96-well dish (2.5×10^3 cell/well) and cultured for 24 hours at 37° C. under 5% CO2 atmosphere in DMEM:F12 (1:1) medium containing 10% FCS, 50 μg/ml penicillin, and 50 μg/ml streptomycin. To the culture medium was added a test compound dissolved in DMSO (DMSO final concentration<0.1%), and the cells were cultured for three days under the same conditions. The test compound was exchanged every 24 hours together with the culture medium.
The amount of living cells were measured by calorimetric determination at wave lengths of 550 nm and 650 nm after developing colour by MTT reagent, in accordance with the method of Michael C.
Cancer cell growth inhibitory activity (CCGIA) was determined according to the following equation.
Simbols "a" and "b" represent the colorimetric values determined in the cancer cell growth assay with and without the test compounds, respectively.

In another test the target is T1, EGF receptor (Homo sapiens, UniProt P00533).
T1 construct: The cell membrane fraction, a partially purified EGF receptor, was used as an enzyme source; endogenous in cells; host or cells: A431 (human epidermoid carcinoma), cell membrane fraction
In words: Tyrosine kinase inhibitory activity (partially purified EGF receptor from A431 cell membrane fraction, RR-SRC peptide substrate). The format is biochemical. As to conditions: partially purified EGF receptor from A431 cells, 100 ng EGF, 10 μM γ-32P-ATP, 30 minutes under ice-cooling. The method, then:
as §1
Tyrosine Kinase Inhibitory Activity
Tyrosine kinase inhibitory activities of the compounds of the invention were determined as the inhibitory activities of the compounds added into the tyrosine kinase activity assay system.
The method employed is detailed below.
A431 cells were cultured in Dulbecco's modified Eagles medium (DMEM) containing 10% fetal calf serum (FCS) at 37° C. under 5% CO2 atmosphere. The cultured cells were homogenated in a solution containing 10 mM N-2-hydroxyethylpiperazino-N'-2-ethane sulfonate buffer (pH 7.4), 0.25M sucrose, and 0.1 mM EDTA, and centrifuged at 3000 xg for 5 minutes. The supernatant was then centrifuged at 10000 xg for 30 minutes to obtain A431 cell membrane fraction. The cell membrane fraction, a partially purified EGF receptor, was used as an enzyme source. A test compound dissolved in dimethylsulfoxide (DMSO) was added to a reaction mixture containing 15 mM Hepes buffer (pH 7.7), 2 mM MnCl2, 10 μM ZnSO4, 50 μM Na3 VO4 and the partially purified EGF receptor preparation (10-15 μg). […] The mixture was allowed to react under […] for 30 minutes, and the reaction was stopped by addition of 10 mg/ml bovine serum albumin and 20% trichloroacetic acid. The reaction mixture was left to stand under ice-cooling for 30 minutes. The mixture was centrifuged at 5000 xg for two minutes, and an aliquot of the supernatant was adsorbed on P81 phosphocellulose filter. The filter was dipped in 30% aqueous acetic acid for 15 minutes for fixation and then washed with 15% acetic acid. The washing was repeated four times. The radioactivity of ^32 P retained on the phosphocellulose filter was counted with liquid scintillation counter.
Tyrosine kinase inhibitory activity (TKIA) was determined according to the following equation:
TKIA(%)={1-(B-C)/(A-C)}×100
The sympols "A", "B" and "C" represent the radioactivities determined in tyrosine kinase assays with test compounds, without a test compound, and without both a test compound and EGF, respectively.

Where [1] appears, read: KB cells, three days, 37° C., MTT.

T1 sequence (P00533 25-1210): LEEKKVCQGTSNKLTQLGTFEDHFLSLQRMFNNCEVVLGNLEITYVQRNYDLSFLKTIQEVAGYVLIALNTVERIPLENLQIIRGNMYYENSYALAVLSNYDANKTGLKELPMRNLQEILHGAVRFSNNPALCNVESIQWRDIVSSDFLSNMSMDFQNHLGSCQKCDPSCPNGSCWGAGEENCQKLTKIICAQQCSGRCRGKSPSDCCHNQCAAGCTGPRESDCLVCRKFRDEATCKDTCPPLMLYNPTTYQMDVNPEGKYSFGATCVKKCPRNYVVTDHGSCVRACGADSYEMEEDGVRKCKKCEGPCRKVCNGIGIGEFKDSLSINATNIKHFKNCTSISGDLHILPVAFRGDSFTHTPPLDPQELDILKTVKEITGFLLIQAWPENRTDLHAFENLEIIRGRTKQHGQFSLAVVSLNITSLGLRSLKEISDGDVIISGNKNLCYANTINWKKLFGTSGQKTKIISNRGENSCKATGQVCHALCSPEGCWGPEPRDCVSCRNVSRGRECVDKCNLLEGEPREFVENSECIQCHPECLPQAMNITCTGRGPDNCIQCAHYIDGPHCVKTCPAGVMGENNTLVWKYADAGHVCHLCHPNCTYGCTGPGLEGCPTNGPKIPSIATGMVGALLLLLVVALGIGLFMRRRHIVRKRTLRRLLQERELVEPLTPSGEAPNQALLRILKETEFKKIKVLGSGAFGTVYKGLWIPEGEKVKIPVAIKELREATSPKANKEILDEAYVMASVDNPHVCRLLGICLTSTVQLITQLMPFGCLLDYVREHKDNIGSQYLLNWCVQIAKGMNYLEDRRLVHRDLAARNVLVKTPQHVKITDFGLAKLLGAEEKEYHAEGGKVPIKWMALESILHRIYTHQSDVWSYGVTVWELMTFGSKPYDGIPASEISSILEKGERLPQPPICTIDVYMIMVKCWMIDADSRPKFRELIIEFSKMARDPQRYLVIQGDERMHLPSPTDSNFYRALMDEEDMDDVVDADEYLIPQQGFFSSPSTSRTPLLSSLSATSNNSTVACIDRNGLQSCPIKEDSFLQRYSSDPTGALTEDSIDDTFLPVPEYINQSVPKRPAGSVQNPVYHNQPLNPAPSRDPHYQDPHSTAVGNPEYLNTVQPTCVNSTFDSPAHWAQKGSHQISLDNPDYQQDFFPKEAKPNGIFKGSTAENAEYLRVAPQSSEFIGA

Usually IC50 stands for the concentration at which inhibition is half-maximal. As for `COc1ccc(C(=O)/C=C/C(=O)Nc2ccccc2)cc1OC` [Compound 59], the IC50 came out at 0.45 µM with KB cell (KB) and 0.54 µM on EGF receptor.

On to `COc1ccc(C(=O)/C=C/C(=O)Nc2ccccc2Cl)cc1OC` [Compound 71], for which the IC50 in the test with KB cell (KB) and against EGF receptor was 1.2 µM in each case.

In the case of `COc1cc(C(=O)/C=C/C(=O)Nc2ccccc2)ccc1OCc1ccccc1` [Compound 67], the IC50 is 0.58 µM with KB cell (KB) and 13 µM against EGF receptor.

In the case of `COc1ccc(C(=O)/C=C/C(=O)Nc2cccc(Cl)c2)cc1OC` [Compound 74], the results for the IC50 with KB cell (setting [1]) and against EGF receptor were 0.7 µM and 0.76 µM, respectively.

Take `COc1ccc(C(=O)/C=C/C(=O)NC2CCCCC2)cc1OC` [Compound 45]: the IC50 stood at 0.22 µM in the test on KB cell (KB) and 1 µM at EGF receptor.

Turning to `COc1ccc(C(=O)/C=C/C(=O)NC(=O)c2ccccc2)cc1OC` [Compound 110], the half-inhibitory concentration (IC50) worked out at 11.5 µM in the test with KB cell (KB) and 0.91 µM at EGF receptor.

As to `COc1ccc(C(=O)/C=C/C(=O)Nc2ccccc2)cc1` [Compound 58], the IC50 with KB cell (KB) is 0.34 µM; against EGF receptor it was 2.2 µM.

Turning to `COc1ccc(C(=O)/C=C/C(=O)NCc2ccccc2)cc1OC` [Compound 19], the figures for the IC50 in the test on KB cell (KB) and at EGF receptor were 0.97 µM and 0.79 µM, respectively.

With `O=C(/C=C/C(=O)c1ccc(O)c(O)c1)Nc1cccc(Cl)c1` [Compound 75], the IC50 is 1.25 µM in the test with KB cell (KB) and 4.3 µM on EGF receptor.

Turning to `COc1ccc(C(=O)/C=C/C(=O)Nc2cccc(C)c2)cc1OC` [Compound 83], the values for the IC50 in the test on KB cell (KB) and against EGF receptor were 0.95 µM and 0.81 µM, respectively.

Take `O=C(/C=C/C(=O)c1ccc(O)c(O)c1)Nc1ccccc1` [Compound 60]: the values for the IC50 in the test on KB cell (KB) and against EGF receptor were 1.85 µM and 1 µM, respectively.

Consider `COc1ccc(C(=O)/C=C/C(N)=O)cc1OC` [Compound 2], for which the 50% inhibitory concentration (IC50) turned out to be 0.92 µM in the test on KB cell (KB) and 0.32 µM on EGF receptor.

As to `COc1cc(C(=O)/C=C/C(=O)Nc2ccccc2)ccc1OC(F)F` [Compound 64], the IC50 in the test with KB cell (KB) was determined as 1.1 µM; on EGF receptor, 1.5 µM.

With `COc1cc(C(=O)/C=C/C(=O)Nc2ccccc2)ccc1O` [Compound 61], the IC50 in the test on KB cell (setting [1]) was 2 µM; on EGF receptor, 1.5 µM.
